Source: article PMC10731644, “Toward ^68Ga and ^64Cu Positron Emission Tomography Probes: Is H2dedpa-N,N′-pram the Missing Link for dedpa Conjugation?” (Inorganic Chemistry, 2023)
Where two headings read alike, the source gives them in different places. Marks after values point to notes of the source that are not given here. Blank lines part the entries; values can stand above or below the compound they belong to.

Tests used:
[1] = cited from earlier work
[2] = cited from earlier work; for pGa: [L] = 10 μM, [M] = 1 μM, pH = 7.4
[3] = Complex formation equilibria with Cu(II) (potentiometric–spectrophotometric and in-batch acidic UV titrations); assay type: physicochemical; conditions: literature chelators, no reference given for the value; [L] = 10 μM, [M] = 1 μM, pH = 7.4
Procedure: Protonation constants and metal stability constants were determined through a multitechnique approach. Combined potentiometric–spectrophotometric titrations were carried out using a Metrohm Titrando 809 equipped with a Ross combined electrode and a Metrohm Dosino 800. The glass cell containing the solutions to be titrated was maintained at a constant temperature, 25 °C, and connected with an inlet–outlet tube for nitrogen gas (purified through a 10% NaOH solution) to exclude CO2 prior to and during the titration. Daily electrode calibrations were carried out at proton ion concentration, and the results were analyzed with the Gran[41] procedure to obtain the standard potential (E°) and the ionic product of water pKw at T = 25 °C and I = 0.16 M NaCl. […] The exact amount of acid present was determined by the titration of equimolar solutions of either Cu(II) or Ga(III) and Na2H2EDTA using Gran plotting.[41]
Complex formation equilibria of either Ga(III) or Cu(II) with H2L^1 were studied using two different methods. […] The pH in the most acidic samples was calculated from the H^+ concentration when the pH was below the electrode threshold. From very acidic pH, both Cu(II) and Ga(III) complexes formed, and the first protonated complex species ([Cu(H3L^1)]^3+ and [Ga(H2L^1)]^3+) were determined through the fitting of these experiments with the HypSpec2014 program[42] […]

[4] = cited from earlier work; remark: listed apart in the source
[5] = Complex formation equilibria with Ga(III) (potentiometric–spectrophotometric and in-batch acidic UV titrations); assay type: physicochemical; conditions: for pGa, corrected value: from corrected log KML, [L] = 10 μM, [M] = 1 μM, pH = 7.4; for log KML (M = Ga^3+), corrected value: refit of potentiometric curve in competition with [Ga(OH)4]−, I = 0.15 M NaCl, 25 °C (Supporting Information)
Procedure: Protonation constants and metal stability constants were determined through a multitechnique approach. Combined potentiometric–spectrophotometric titrations were carried out using a Metrohm Titrando 809 equipped with a Ross combined electrode and a Metrohm Dosino 800. The glass cell containing the solutions to be titrated was maintained at a constant temperature, 25 °C, and connected with an inlet–outlet tube for nitrogen gas (purified through a 10% NaOH solution) to exclude CO2 prior to and during the titration. […] The calibrations involved HCl standard being titrated with carbonate-free titrant NaOH(aq) (0.15 M), and the ionic strength was maintained constant to 0.16 M by the addition of a NaCl solution. The NaOH was previously standardized against freshly dried potassium hydrogen phthalate crystals. Copper and gallium metal-ion solutions used in metal complexation experiments were prepared by the dilution of AA standards. The exact amount of acid present was determined by the titration of equimolar solutions of either Cu(II) or Ga(III) and Na2H2EDTA using Gran plotting.[41]
Complex formation equilibria of either Ga(III) or Cu(II) with H2L^1 were studied using two different methods. […] The pH in the most acidic samples was calculated from the H^+ concentration when the pH was below the electrode threshold. From very acidic pH, both Cu(II) and Ga(III) complexes formed, and the first protonated complex species ([Cu(H3L^1)]^3+ and [Ga(H2L^1)]^3+) were determined through the fitting of these experiments with the HypSpec2014 program[42] (Figures S50–S52 and S56–S58 and Table S3). […] Dissociation constants corresponding to the hydrolysis of Ga(III) and Cu(II) aqueous ions included in the calculations were taken from Baes and Mesmer.[46] Complexation of H2L^1 with Ga(III) was further corroborated by the findings of ^1H NMR experiments at different pD values (Figures 3 and S26). Similarly, complexation of H2L^2 with Cu(II) or Ga(III) was studied by in-batch acidic UV experiments in a set of solutions prepared with the experimental conditions [H2L^2] = [Ga^3+] = 1 × 10^–4 M; [H2L^2] = [Cu^2+] = 7 × 10^–4 M, and the pH was adjusted by the addition of different amounts of standardized HCl. The ionic strength was maintained constant at 0.16 M when possible by the addition of NaCl. The first-formed complex species ([Cu(HL^2)]^+, [CuL^2], and [GaL^2]^+) were determined through fitting of the experimental data (Figures S53–S55 and S59–S61 and Table S3). […]

[6] = Protonation constants by combined potentiometric–spectrophotometric, in-batch acidic UV and 1H NMR titrations; assay type: physicochemical; conditions: 25 °C, I = 0.16 M NaCl
Procedure: Protonation constants and metal stability constants were determined through a multitechnique approach. Combined potentiometric–spectrophotometric titrations were carried out using a Metrohm Titrando 809 equipped with a Ross combined electrode and a Metrohm Dosino 800. The glass cell containing the solutions to be titrated was maintained at a constant temperature, 25 °C, and connected with an inlet–outlet tube for nitrogen gas (purified through a 10% NaOH solution) to exclude CO2 prior to and during the titration. Daily electrode calibrations were carried out at proton ion concentration, and the results were analyzed with the Gran[41] procedure to obtain the standard potential (E°) and the ionic product of water pKw at T = 25 °C and I = 0.16 M NaCl. The calibrations involved HCl standard being titrated with carbonate-free titrant NaOH(aq) (0.15 M), and the ionic strength was maintained constant to 0.16 M by the addition of a NaCl solution. The NaOH was previously standardized against freshly dried potassium hydrogen phthalate crystals. Copper and gallium metal-ion solutions used in metal complexation experiments were prepared by the dilution of AA standards. The exact amount of acid present was determined by the titration of equimolar solutions of either Cu(II) or Ga(III) and Na2H2EDTA using Gran plotting.[41]
Protonation equilibria of either H2L^1 or H2L^2 were studied by titrations of solutions containing [H2L^1] = 9.56 × 10^–4 M or [H2L^2] = 5.87 × 10^–4 M at 25 °C and 0.16 M NaCl ionic strength using a potentiometric–spectrophotometric procedure. In each titration (100–150 equilibrium points and pH range 2–11), the electromotive force values were recorded after 2 min of each NaOH addition and the spectrophotometer was synchronized to obtain a UV spectrum for each pH data point. Spectra were recorded in the 200–400 nm wavelength range with a 0.2-cm-path-length optic dip probe connected to a Varian Cary 60 UV–vis spectrophotometer. The obtained spectrophotometric and potentiometric data were analyzed with HypSpec2014([42]) and HyperQuad2013([43]) to obtain the protonation constants and molar absorptivities of the different absorbing species of the ligands (Table 3 and Figures S42–S49 and S51B). […] Additional ^1H NMR titrations were carried out for H2L^1 to better understand the protonation sequence and their assignments (Figures S45 and S46). A set of H2L^1 solutions (4 × 10^–3 M) in D2O were prepared by the addition of DCl or NaOD, and their ^1H NMR spectra were recorded. The pH values of the samples were then measured with a microelectrode (Mettler Toledo), which was calibrated daily at H^+ concentration as described above. The pH was corrected for the deuterium isotopic effect (pD = pHreading + 0.4).[44]

[7] = Table S4 footnote f, ref 8 (SI)
[8] = Table S4 footnote c, ref 5 (SI)
[9] = Table S4 footnote d, ref 6 (SI)
[10] = Table S4 footnote e, ref 7 (SI)

pCu [3]: 16.2
Compound: O=C(O)CN1CCN(CC(=O)O)CCN(CC(=O)O)CCN(CC(=O)O)CC1 [DOTA, 1,4,7,10-tetraazacyclododecane-1,4,7,10-tetraacetic acid]
log KHqL, H2L + H+ ⇆ H3L [1, 7]: 4.548 (3)
log KHqL, H3L + H+ ⇆ H4L [1, 7]: 4.130 (3)
log KHqL, HL + H+ ⇆ H2L [1, 7]: 9.680 (1)
log KHqL, L + H+ ⇆ HL [1, 7]: 12.09 (4)
∑log KHqL [1, 7]: 30.448
log KML (M = Ga^3+) [2]: 21.33 ^g
log KML (M = Cu^2+) [4]: 22.21(1) ^f

Compound: O=C([O-])CN1CCN(CC(=O)[O-])CCN(CC(=O)[O-])CCN(CC(=O)[O-])CC1.[Ga+3] [Ga^III-DOTA]
pGa [2]: 18.5
log KML (M = Ga^3+) [2]: 21.33

pGa, corrected value [5]: 22.2 ^e
log KML (M = Ga^3+), corrected value [5]: 22.9(1) ^e
Compound: O=C(O)c1cccc(CNCCNCc2cccc(C(=O)O)n2)n1 [H2dedpa, 1,2-bis[[(6-carboxypyridin-2-yl)methyl]amino]ethane]
log KHqL, H2L + H+ ⇆ H3L [1, 8]: 3.04
log KHqL, H3L + H+ ⇆ H4L [1, 8]: 2.59
log KHqL, HL + H+ ⇆ H2L [1, 8]: 6.31
log KHqL, L + H+ ⇆ HL [1, 8]: 9.00
log KHqL, H2L + H+ ⇆ H3L [1, 9]: 3.08 (2)
log KHqL, H3L + H+ ⇆ H4L [1, 9]: 2.33 (3)
log KHqL, HL + H+ ⇆ H2L [1, 9]: 6.18 (2)
log KHqL, L + H+ ⇆ HL [1, 9]: 8.69 (1)
log KML (M = Cu^2+) [4]: 19.16(5) ^d
pCu ([4]; −log [Mfree] at [L] = 10 μM, [M] = 1 μM, pH = 7.4): 18.5 ^d

pCu [3]: 19.2
Compound: O=C(O)CN1CCN(CC(=O)O)CCN(CC(=O)O)CC1 [NOTA, 1,4,7-triazacyclononane-1,4,7-triacetic acid]
log KHqL, H2L + H+ ⇆ H3L [1, 10]: 3.163(3)
log KHqL, H3L + H+ ⇆ H4L [1, 10]: 1.955(3)
log KHqL, HL + H+ ⇆ H2L [1, 10]: 6.032(4)
log KHqL, L + H+ ⇆ HL [1, 10]: 10.773(7)
∑log KHqL [1, 10]: 21.923
pGa [2]: 27.9 ^g
log KML (M = Ga^3+) [2]: 30.98 ^g
log KML (M = Cu^2+) [4]: 21.6 ^d

pGa, corrected value [5]: 22.2
log KML (M = Ga^3+), corrected value [5]: 22.9(1)
Compound: O=C([O-])c1cccc(CNCCNCc2cccc(C(=O)[O-])n2)n1.[Ga+3] [[Ga(dedpa)]^+]
log KML (M = Ga^3+) [2]: 28.11(8)

log KHqL, H2L + H+ ⇆ H3L (log K3) [6]: 6.78
log KHqL, H3L + H+ ⇆ H4L (log K4) [6]: 4.23
log KHqL, H4L + H+ ⇆ H5L (log K5) [6]: 2.79
log KHqL, H5L + H+ ⇆ H6L (log K6) [6]: 2.01
log KHqL, HL + H+ ⇆ H2L (log K2) [6]: 9.91
log KHqL, L + H+ ⇆ HL (log K1) [6]: 10.86
Compound: N,N′-Bis(3-aminopropyl)-N,N′-bis(6-carboxypyridin-2-yl)-1,2-diaminoethane [H2L^1]
